Measurements reported in patent publication US9394338B2, “Glutathione analogs and uses thereof” (REGENTS OF THE UNIVERSITY OF MINNESOTA, priority 2011, dated 2016).

How the values were obtained:
Format in all cases: in vivo
[1] = tested on: C57BL/6 mice; assay: Short-term toxicity / dose determination study; settings: i.p. 3×/week for two weeks, highest dose 2000 mg/Kg
Protocol: Dose Determination Study: Ψ-GSH was injected intraperitoneally and orally in wild type C57BL/6 mice (6-8 week old, 4/group) three times a week for two weeks. The doses of Ψ-GSH employed ranged from 100 mg/kg to 2000 mg/kg. Body weight (twice a week), complete blood count (CBC) analysis and liver, kidney and lung histology was considered to be indicative of toxicity from the drug treatment. Histological sections of tissue were analyzed by a board-certified pathologist at the Masonic Cancer Center-Comparative Pathology Shared Resource, University of Minnesota.

[2] = tested on: APP/PS1 mice; assay: Immunohistochemistry of Aβ plaques in brain
Protocol: (§1) Efficacy Study Design. To determine the effect of intraperitoneal and oral Ψ-GSH treatment, the study was divided in four groups (10 mice/group). 1. APP/PS1 mice-vehicle control, 2. APP/PS1 mice-Ψ-GSH i.p. 500 mg/kg, 3. APP/PS1 mice-Ψ-GSH oral 500 mg/kg, 4. Non-transgenic wild type mice-vehicle control. All the animals in the above-said groups were treated with saline or Ψ-GSH three times a week for 12 weeks, starting at the age of three to four months. Eleven weeks after the start of the treatment, the animals were tested in the Morris water maze, and twelve weeks after the start of the treatment, the animals were sacrificed for histopathological analysis.
Immunohistochemistry. Mice were anesthetized, and their brains were removed, cut sagittaly. Following post-fixation of right hemisphere in Zamboni's fixative (4% paraformaldehyde and 15% picric acid in 0.25 M sodium phosphate, pH 7.5) for 48 h before being cryopreserved in a 30% (wt/vol) sucrose in phosphate-buffered saline solution. Brains were then were embedded in O.C.T. Tissue Tek Compound (Miles Scientific) and were cryosectioned at 10 μm thickness for immunohistochemistry, mounted on Superfrost™ microscope slides (Erie Scientific, Portsmouth N.H.) and stored at […] until their utilization.
The brain sections were stained with a primary antibody against 0-amyloid peptide (Cell signaling, Cat. #2454) at a dilution of 1:200 in PBS. […]

[3] = tested on: APP/PS1 mice; assay: Amyloid-β1-42 ELISA of brain homogenate
Protocol: as §1
Amyloid-β1-42 ELISA. Total Aβ^1-42 in the brain was quantified by sandwich ELISA (Invitrogen, Carlsbad, Calif.) according to the manufacturer's instructions. Wild type and transgenic Alzheimer's mice brains were Dounce homogenized in phosphate buffered saline (PBS), pH 7.2, containing a mixture of protease inhibitors. Brain homogenates were centrifuged and supernatants were assayed for soluble Aβ^1-42 per manufacturers' protocols. […] The concentration of both PBS soluble and insoluble (guanidine soluble) Aβ^1-42 was calculated from a standard curve of human Aβ^1-42 and was normalized to the weight of the tissue employed.

[4] = tested on: APP/PS1 mice; assay: Brain protein carbonyl determination
Protocol: as §1
Protein Carbonyl Determination. Brains were homogenized in cold buffer (50 mM phosphate, pH 7.0, containing 1 mM EDTA containing protease inhibitors) and centrifuged at 10,000×g for 15 min at 4° C. The supernantent was mixed with 0.5 ml of 10 mM 2,4-dinitrophenylhydrazine (DNPH)/2 M HCL (or 2 M HCl alone for blanks). Samples were placed in a sample holder and incubated in the dark at room temperature for one hour vortexing intermittently. […] The concentration of DNPH was determined at its maximum wavelength (360 nm) and the molar absorption coefficient of 22,000 M^−1 cm^−1 was used to quantify the levels of protein carbonyls. Total protein concentration was determined by BCA protein assay kit (Pierce, Rockford, Ill.). […]

[5] = tested on: APP/PS1 mice; assay: Brain lipid peroxidation (TBARS) assay
Protocol: as §1
Lipid Peroxidation Assay. The levels of lipid peroxidation were quantified by the thiobarbituric acid-reactive substances (TBARS) assay. Brain homogenate was treated with 2 ml of (1:1:1) ratio (TBA) thiobarbituric acid -(TCA) trichloroacetic acid -(HCl) chloridic acid reagent (TBA 0.37%, 0.25 N HCL and 15% TCA) and placed in water bath for 15 min, cooled and centrifuged and then clear supernatant was measured at 535 nm against reference blank. Protein was determined by the BCA protein assay kit. TBARS were normalized to the protein content in each sample and then expressed as percentage of the corresponding values in non-transgenic saline controls.

N[C@@H](CNC(=O)N[C@@H](CS)C(=O)NCC(=O)O)C(=O)O [Ψ-GSH, γ-Gla-Cys-Gly-OH]
ALT, AST, ALP, blood urea nitrogen (BUN) and creatinine levels [1]: Unaffected
Body weights and CBC [1]: insignificantly affected
Histopathology of lung, liver and kidney tissue vs saline-treated mice [1]: no significant difference
number and size of Aβ plaques ([2]; i.p.): drastically reduced
Aβ plaques relative to controls ([2]; oral): modest decrease
insoluble Aβ1-42 in brain ([3]; i.p.): 45.4±6.01 % of vehicle-treated APP/PS1 mice
insoluble Aβ1-42 concentration in brain ([3]; oral): 90.80±6.72 % of vehicle treated APP/PS1 mice
Protein carbonyls in brain (WT saline = 100%) ([4]; i.p.): 97.8±6.30%
levels of protein carbonylation ([4]; oral): unaffected
TBARS levels in brain (WT saline = 100%) ([5]; i.p.): 95.3±5.51%
levels of lipid peroxidation ([5]; oral): unaffected
